The values below come from US8414760B2, “Biosensor electrode mediators for regeneration of cofactors” (priority 1997, dated 2013).

For assay [1], the system named is D-3-Hydroxybutyrate dehydrogenase (HBDH). The experiment in a line: Assessment of mediator inhibition of D-3-hydroxybutyrate dehydrogenase (assay rate before and after filtration). The format is biochemical, Pseudomonas sp. Also noted: Residual enzyme activity after filtration (percentage of the original activity): concentration or dose not given beside the values. Conditions: for Assay Rate before filtration: 50 U/ml HBDH with mediator in Tris buffer pH 8.2, incubated 0.5 hours at 37.5 C, NADH at 340 nm, measure of efficiency as oxidant of NADH; for Residual enzyme activity after filtration (percentage of the original activity): compared with control (no mediator); for Assay Rate after filtration: enzyme reisolated from the mediator solution by filtration (30,000 cut-off), redissolved in Tris buffer. As to the method:
D-3-Hydroxybutyrate dehydrogenase (HBDH; EC 1.1.1.30) from Pseudomonas sp. was purchased from Toyobo Co., Ltd. p-Nicotinamide adenine dinucleotide (NAD^+) and D,L-3-hydroxybutyric acid were supplied by Boehringer Mannheim.
A series of 18 solutions (2.5 ml each) were prepared, each containing 50 U/ml HBDH and 1.29 or 2.58 mg of the following NAD(P)H mediators: MB(3), 4-Me-BQ(4), 1-Me0-PMS (5), DCIP(6), 1,10-PQ(7), 1,7-PQ(8), 2,9-Me2-1,10-PQ(10), 1-Me-1,10-PQ^+ (11), and [Ru(bpy)2(1,10-PQ)](PF6)2 (12) in Tris buffer (50 mM, pH 8.2). A control solution was also prepared, containing enzyme but no mediator. The solutions were incubated for 0.5 hours at 37.5 C, then assayed (in triplicate) for NADH at 340 nm, using a Sigma Diagnostics D-3-hydroxybutyrate kit. The extent of the interference of the added mediator with the assay rate compared to the control afforded a quantitative measure of the mediator's efficiency as an oxidant of NADH.
The enzyme was then reisolated from the mediator solutions by filtration through a polysulfone membrane (nominal molecular weight cut-off: 30,000) in a microcentrifuge filter (Millipore). The enzyme remaining on the filter was dissolved in Tris buffer (0.2 ml), and the resulting solution was assayed (in triplicate) with the Sigma kit. By comparing the results of the assays before and after filtration, the effect of any covalently and/or irreversibly bound mediator on the enzyme activity could be determined.

A short description of assay [2]: Evaluation of mediators as NADH mediators in dry strips (screen-printed electrodes, NADH dose response). As to the method: Screen-printed electrodes incorporating 1,10-PQ and MB were produced from an organic carbon ink containing these NAD(P)H mediators at a level of 3.5 mg/g ink. The solid mediators were mixed into a commercial conducting carbon ink (Gwent Electronic Materials).
The dose response curve for the electrodes containing 1,10-PQ tested with aqueous NADH solutions (0-16.7 mM) in PBS at a poise potential of +400 mV versus a printed Ag/AgCl reference electrode is shown in FIG. 3. A slope of 0.58 nA mM^−1 NADH was recorded. The dose response curve for the electrodes containing MB tested with aqueous NADH solutions (0-12.4 mM) at a poise potential of +100 mV versus a printed Ag/AgCl reference electrode is shown in FIG. 4. An increased slope of 8.48 μA mM^−1 NADH was observed.

Assay [3] is described as follows: Dry strips containing HBDH and NAD+: response to D-3-hydroxybutyrate after storage. As to the method:
Screen-printed electrodes were produced from an aqueous carbon ink incorporating 1,10-PQ or MB at a level of 2.4 or 4.3 mg/g ink, respectively, together with the enzyme HBDH (120 units/g ink) and NAD^+ (110 mg/g ink). The ink also contained a polysaccharide binder.
The electrodes were tested after 4, 14, and 26 weeks of storage (30° C., desiccated) with aqueous D-3-hydroxybutyrate solutions (0-25 mM) in PBS at a poise potential of +400 mV versus a printed Ag/AgCl reference electrode. All three dose responses were non-linear and levelled out with a current of 8.5 μA being recorded at 24 mM D-3-hydroxybutyrate.
The electrodes were tested after 2 and 14 weeks storage (30° C., desiccated) with aqueous D-3-hydroxybutyrate solutions (0-28 mM) in PBS at a poise potential of +100 mV versus a printed Ag/AgCl reference electrode. The dose response curves were similar to those in FIG. 4. A current of 8.6 μA was recorded at 24 mM D-3-hydroxybutyrate for these electrodes after 2 weeks storage. This is almost identical to responses obtained from dry strips containing 1,10-PQ.

In the case of “[Ru(bpy)2(1,10-PQ)] (PF6)2 [[Ru(bpy)2(1,10-PQ)](PF6)2]”, in assay [1], the “Assay Rate before filtration” value came to 0.114 absorbance units/min, the “Residual enzyme activity after filtration (percentage of the original activity)” value was 98% and the “Assay Rate after filtration” value turned out to be 0.193 absorbance units/min.
As for `C[n+]1cccc2c1-c1ncccc1C(=O)C2=O.O=S(=O)([O-])C(F)(F)F` [1-Me-1,10-PQ^+, 1-Me-1,10-phenanthrolinium quinone trifluoromethane sulphonate], in assay [1], the “Assay Rate before filtration” value worked out at 0.150 absorbance units/min, the “Residual enzyme activity after filtration (percentage of the original activity)” value was found to be 94% and the “Assay Rate after filtration” value is reported as 0.185 absorbance units/min.
`Cc1ccc2c(n1)-c1nc(C)ccc1C(=O)C2=O` [2,9-Me2-1,10-PQ, 2,9-Dimethyl-1,10-phenanthroline quinone]: in assay [1], the “Assay Rate before filtration” value is 0.189 absorbance units/min.
For `C[N+](C)=c1ccc2nc3c(ccc4ccccc43)oc-2c1.[Cl-]` [MB, Meldola's Blue], the “Slope of dose response curve to NADH” value in assay [2] (electrodes containing MB, NADH 0-12.4 mM, +100 mV versus Ag/AgCl) amounted to 8.48 μA mM^−1 NADH. Further, in assay [1], the “Assay Rate before filtration” value was found to be 0.008 absorbance units/min, the “Residual enzyme activity after filtration (percentage of the original activity)” value is on record as 16% and the “Assay Rate after filtration” value stood at 0.026 absorbance units/min. The “Current at 24 mM D-3-hydroxybutyrate” value in assay [3] (after 2 weeks storage (30° C., desiccated), +100 mV versus Ag/AgCl) amounted to 8.6 μA.
Consider `O=C1C(=O)c2cccnc2-c2ncccc21` [1,10-PQ, 1,10-Phenanthroline quinone], for which the “Slope of dose response curve to NADH” value in assay [2] (electrodes containing 1,10-PQ, NADH 0-16.7 mM in PBS, +400 mV versus Ag/AgCl) is 0.58 nA mM^−1 NADH. In assay [1], the “Assay Rate before filtration” value came out at 0.149 absorbance units/min and the “Assay Rate after filtration” value is given as 0.160 absorbance units/min. Further, the “Current at 24 mM D-3-hydroxybutyrate” value in assay [3] (after 4, 14 and 26 weeks of storage (30° C., desiccated), +400 mV versus Ag/AgCl) turned out to be 8.5 μA.
Consider `CC1=CC(=O)C(=O)C=C1` [Compound 4-Me-BQ, 4-Methyl-1,2-benzoquinone], for which, in assay [1], the “Assay Rate before filtration” value came to 0.005 absorbance units/min, the “Residual enzyme activity after filtration (percentage of the original activity)” value was determined as 4% and the “Assay Rate after filtration” value was found to be 0.007 absorbance units/min.
Regarding `O=C1C(=O)c2ncccc2-c2ncccc21` [1,7-PQ, 1,7-Phenanthroline quinone], in assay [1], the “Assay Rate before filtration” value stood at 0.115 absorbance units/min and the “Assay Rate after filtration” value came to 0.150 absorbance units/min.
As to `COS(=O)(=O)[O-].COc1cccc2c1nc1ccccc1[n+]2C` [Compound 1-MeO-PMS, 1-Methoxy phenazine methosulphate], in assay [1], the “Assay Rate before filtration” value is reported as 0.009 absorbance units/min, the “Residual enzyme activity after filtration (percentage of the original activity)” value was found to be 47% and the “Assay Rate after filtration” value is reported as 0.071 absorbance units/min.
In the same order, the values of `O=C1C(Cl)=CC(=Nc2ccc(O)cc2)C=C1Cl` [DCIP, 2,6-Dichloroindophenol] are 0.104 absorbance units/min, 57% and 0.085 absorbance units/min.
